Data: patent US6054455A, “Method for treating or preventing chronic nonbacterial prostatitis and prostatodynia” (Merck & Co., Inc., priority 1999, dated 2000)

Test system: patients suffering from chronic nonbacterial prostatitis
Experiment: Double-blind, placebo-controlled study of a substance P antagonist in patients suffering from chronic nonbacterial prostatitis
Type: in vivo, human
Details: 30 mg/day; assessed by immunological profile, rating scales, checklists and diminishment of the attendant disease state
Protocol: Double-Blind, Placebo-Controlled Study to Determine the Effect of a Substance P Antagonist on Patients Suffering from Chronic Nonbacterial Prostatitis Approximately twenty patients diagnosed as suffering from chronic nonbacterial prostatitis receive either the substance P receptor antagonist 2-(R)-(1-(R)-(3,5-bis(trifluoromethyl)-phenyl)-ethoxy)-3-(S)-(4-fluoro-phenyl)-4-(3-(5-oxo-1H,4H-1,2,4-triazolo)methyl-morpholine (30 mg/day) or a placebo. Each subject participates in 6 randomized test periods; in 3 of the test periods, each is given the substance P antagonist and in the other 3 test periods, is given a placebo. Efficacy of the test compound is assessed by reference to immunological profile, rating scales, checklists and diminishment of the attendant disease state.

C[C@@H](O[C@H]1OCCN(Cc2n[nH]c(=O)[nH]2)[C@H]1c1ccc(F)cc1)c1cc(C(F)(F)F)cc(C(F)(F)F)c1 [2-(R)-(1-(R)-(3,5-bis(trifluoromethyl)-phenyl)-ethoxy)-3-(S)-(4-fluoro-phenyl)-4-(3-(5-oxo-1H,4H-1,2,4-triazolo)methyl-morpholine]
effect with respect to placebo in the treatment or prevention of chronic nonbacterial prostatitis: positive effect with respect to placebo
